Data taken from patent US9238697B2, “Polymeric materials and methods” (The Regents of the University of California, priority 2005, dated 2016).
Non-standard residues stand in square brackets, D forms with d. Residues, ends and D or L forms follow the SMILES beside them. ξ: configuration not given here. *: point of attachment. Boc = CC(C)(C)OC(=O)*; ξK = NCCCCC(N)C(=O)O

Assay: Solubility of peptide monomer
Format: physicochemical
Settings: water, or water/solvent mixtures
Procedure: As described further below, Poly 1-3 were tested for gene delivery applications. As contemplated structures are highly adaptable, structural variations can be made with relative ease to optimize gene transfection levels while maintaining relatively low levels of cytotoxicity. Initial manipulations were performed involving lengthening the peptidyl monomer sequence with additional L-lysine residues to thereby increase the charge density of the polymer overall and to thereby offer stronger DNA binding. It should be recognized that where increased charge density improves the gene transfectability of the polymer system, more residues can be added until an optimal length is found. […] For this reason, solution phase polymerizations were attempted to yield small polymer chains and cyclic structures. One example of cyclic structures is given in Structure VI below.

For `COC(=O)[C@H](CCCCN)NC(=O)C(CCCCNC(=O)OC(C)(C)C)NC(=O)C(CCCCNC(=O)OC(C)(C)C)NC(=O)C(CCCCNC(=O)OC(C)(C)C)NC(=O)[C@H](CCCCN)NC(=O)OC(C)(C)C` (stereo partly shown) [pentalysine monomer] (Boc-K[ξK](Boc)[ξK](Boc)[ξK](Boc)K-OMe), the solubility was “insoluble”.
